Measured values from PMC12211128, “Safety, tolerability, pharmacokinetic and pharmacodynamic effects of the muscarinic M1 positive allosteric modulator VU0467319 for Alzheimer’s disease: a single ascending-dose study in healthy participants” (Alzheimer's Research & Therapy, 2025).

Experiment: Urine pharmacokinetics, single ascending dose and food effect studies
Format: in vivo, human
Settings: for CLR (renal clearance) / Max_Rate (maximum observed excretion rate) / Total %fe / Total Ae: mean (SD); for Max_Rate (maximum observed excretion rate) / Total %fe / Total Ae / Tmax_Rate: urine; for Tmax_Rate: median (min, max)
Procedure: Blood samples (4 mL) were obtained by direct venipuncture into K2 EDTA tubes at 0.5 h pre-dose and at 0.5, 1, 1.5, 2, 2.5, 3, 5, 7, 9, 12, 24, 26, 28, 36, 48 and 144-hours post-dose. […] Urine samples for PK quantification were collected at pre-dose and 2, 5, 12, 24, 36 and 144-hours post-dose.
Determination of plasma and urine concentrations of VU319 and metabolite VU0481424 (VU424) was carried out in compliance with Good Laboratory Practice using a validated method at Illinois Institute of Technology Research Institute (IITRI) laboratories. Pharmacokinetic endpoints included the following VU319 parameters for plasma: area under the plasma concentration-time curve (AUC0 − 48); area under the plasma concentration-time curve extrapolated to infinity (AUC0−∞); percentage of the extrapolated area under the plasma concentration-time curve (%AUCextrap); maximum observed plasma concentration (Cmax); time (in hours) at which Cmax occurred (Tmax); clearance (Cl/F); elimination half-life (t1/2) and volume of distribution (Vd/F). Pharmacokinetic endpoints for VU319 for urine included the following parameters: renal clearance (CLu); amount excreted in urine (Ae) and percent excreted in urine (Ae%).
Single-dose PK parameters were derived from the plasma time concentrations and urinary concentrations. Pharmacokinetic parameters were summarized for each dose group using standard descriptive statistics. Summary statistics (mean, SD, min, max, coefficient of variation %) were calculated for each PK parameter. Plasma samples collected outside of the permitted windows (± 5 min for 0 to 48 h, inclusive; ±3 h for 72 to 144 h, inclusive) were flagged, footnoted in listings of PK concentration data, and excluded from the summary statistics and mean graphs of concentration data. However, these values were used in the calculation of the PK parameters and were also included in the individual concentration/time listings and figures. In this study, no concentration values were excluded due to implausibility.
Missing pre-dose PK concentrations were imputed as 0 in PK parameter calculations. Otherwise, missing data were not imputed. Actual post-dose sampling times were used in the calculation of plasma PK parameters and in the generation of individual concentration-time profiles. Nominal sampling times were used as a replacement for unknown or missing actual times and for the pre-dose values. Nominal sampling timepoints were used in the generation of mean plots and summary tables. For urine samples, nominal intervals were used. All PK analyses were performed using Statistical Analysis Software (SAS®; SAS Institute Inc., Cary, NC) version 9.4.

[1] = VU319 120 mg oral, fasted, food effect study
[2] = VU319 120 mg oral, fed, food effect study

Cn1cc2c(-c3cc(F)c(CN4Cc5ncccc5C4=O)c(F)c3)cccc2n1 [VU319]
CLR (renal clearance) (VU319 60 mg oral, SAD): 1.25 (0.303) mL/h | CLR (renal clearance) (VU319 120 mg oral, SAD): 1.16 (0.537) mL/h | CLR (renal clearance) [1]: 1.24 (0.36) mL/h | CLR (renal clearance) [2]: 1.48 (0.4) mL/h | CLR (renal clearance) (VU319 240 mg oral, SAD): 1.13 (0.657) mL/h | CLR (renal clearance) (VU319 400 mg oral, SAD): 0.97 (0.42) mL/h | CLR (renal clearance) (VU319 600 mg oral, SAD): 0.673 (0.34) mL/h | Total %fe (fraction of the dose excreted unchanged in urine) (all dose levels): < 0.1% | Max_Rate (maximum observed excretion rate) (VU319 60 mg oral, SAD): 0.0024 (0.0012) mg/h | Total %fe (VU319 60 mg oral, SAD): 0.075 (0.034) % | Total Ae (VU319 60 mg oral, SAD): 0.045 (0.021) mg | Tmax_Rate (VU319 60 mg oral, SAD): 3.5 (3.5, 8.5) h | Max_Rate (maximum observed excretion rate) (VU319 120 mg oral, SAD): 0.0032 (0.0025) mg/h | Total %fe (VU319 120 mg oral, SAD): 0.051 (0.026) % | Total Ae (VU319 120 mg oral, SAD): 0.061 (0.032) mg | Tmax_Rate (VU319 120 mg oral, SAD): 8.5 (3.5, 18.0) h | Max_Rate (maximum observed excretion rate) [1]: 0.0025 (0.0011) mg/h | Total Ae [1]: 0.068 (0.026) mg | Tmax_Rate [1]: 8.5 (3.5, 30) h | Max_Rate (maximum observed excretion rate) [2]: 0.005 (0.003) mg/h | Total %fe [2]: 0.075 (0.028) % | Total Ae [2]: 0.091 (0.034) mg | Tmax_Rate [2]: 6.0 (1.0, 8.5) h | Max_Rate (maximum observed excretion rate) (VU319 240 mg oral, SAD): 0.0053 (0.0024) mg/h | Total %fe (VU319 240 mg oral, SAD): 0.039 (0.017) % | Total Ae (VU319 240 mg oral, SAD): 0.093 (0.042) mg | Tmax_Rate (VU319 240 mg oral, SAD): 6.0 (3.5, 18.0) h | Max_Rate (maximum observed excretion rate) (VU319 400 mg oral, SAD): 0.0056 (0.0018) mg/h | Total %fe (VU319 400 mg oral, SAD): 0.0297 (0.015) % | Total Ae (VU319 400 mg oral, SAD): 0.12 (0.058) mg | Tmax_Rate (VU319 400 mg oral, SAD): 6.0 (3.5, 30.0) h | Max_Rate (maximum observed excretion rate) (VU319 600 mg oral, SAD): 0.0051 (0.0027) mg/h | Total %fe (VU319 600 mg oral, SAD): 0.024 (0.011) % | Total Ae (VU319 600 mg oral, SAD): 0.143 (0.065) mg | Tmax_Rate (VU319 600 mg oral, SAD): 6.0 (3.5, 42.0) h
